Values joined by “and” are separate entries in the source; they are usually repeats but may differ in a detail not shown here. Equal values may be shown once. Where a name gives a salt, the structure may show the parent alone. Each block holds one molecule with its values, some of them ahead of it.
Columns and labels:
kidney membrane fraction [1] = test: Effect of glycolipid derivatives on inhibition of specific binding between ^3H-Glc-S-C8 and kidney membrane fraction (Test 9); conditions: specific binding of ^3H-Glc-S-C8 to kidney membrane fraction, same manner as Test 4
Method: A membrane fraction was prepared by the method of Stassen F.L. et al. (J. Pharm. Exp. Thera., 223, 50-54, 1982). An experiment on binding was carried out as follows. The membrane fraction prepared above, together with the ^3H-labeled derivative, was incubated in physiological phosphate buffer on ice, followed by ultracentrifugation. The bound product obtained as the sediment by the ultracentrifugation was counted. […]
Commercially available or synthesized glycolipid derivatives were subjected to an binding inhibition experiment in the same manner as in Test 4.

kidney membrane fraction [2] = test: Inhibition of binding of ^3H-Glc-O-C8-AVP to kidney membrane fraction (Test 4); conditions: ^3H-Glc-O-C8-AVP 20 pmol/ml, kidney membrane fraction 1 mg/ml, on ice 10 min
Method: A membrane fraction was prepared by the method of Stassen F.L. et al. (J. Pharm. Exp. Thera., 223, 50-54, 1982). An experiment on binding was carried out as follows. The membrane fraction prepared above, together with the ^3H-labeled derivative, was incubated in physiological phosphate buffer on ice, followed by ultracentrifugation. The bound product obtained as the sediment by the ultracentrifugation was counted.
The inhibitory activity of segmental structures of Glc-O-C8-AVP and the like against binding ^3H-Glc-O-C8-AVP (20 pmol/ml) to the kidney membrane fraction (1 mg/ml) (incubation on ice for 10 min) was studied.

kidney membrane fraction [3] = test: Effect of sugars on inhibition of specific binding between ^3H-Glc-S-C8 and kidney membrane fraction (Test 8); conditions: ^3H-Glc-S-C8 20 pmol/ml, kidney membrane fraction 1 mg protein/ml
Method: In order to estimate structural requirement for recognition in the kidney, an experiment was carried out on the effect of various sugars and sugar derivatives on the inhibition of specific -binding between ^3H-Glc-S-C8 (20 pmol/ml) and the kidney membrane fraction (1 mg protein/ml).

[4] = Distribution of sugar-modified AVP in organs (Test 1); assay type: in vivo, male SD rats; conditions: rats, i.v. 1 nmol/kg, 5 min after administration; concentration in organs and organ clearance as index (Figs. 1 and 2)
Method: (§1) The organ clearance was determined by the following equation.
The organ clearance under the above experimental conditions is considered as a measure of the speed at which the compound is incorporated into the organs. The kidney is an organ which functions to perform glomerular filtration for the production of urine. The renal clearance of low-molecular weight compounds, which are likely to undergo glomerular filtration, is generally larger than the clearance for other organs. Further, under the above experimental conditions, it was estimated from the results on ^14C-labeled inulin that the incorporation of about 0.6 ml/min/g was carried out by glomerular filtration. Larger values indicate the incorporation of drugs into the kidney through blood vessels in addition to the glomerular filtration.

[5] = Pharmacokinetic test of monkey (Glc-S-C8-CONH-C2-NBD) (Test 10 (2)); assay type: in vivo; conditions: monkeys, i.v. 10 nmol/kg, 5 min; n = 2, average
Method: In order to investigate the difference in activity of the compounds according to the present invention between animal species, the pharmacokinetic test using monkeys was carried out as follows. […] The monkeys of group A were injected with Glc-S-C8-CONH-C2-NBD, while, for comparison, the monkeys of group B were injected with 4-(2-hydroxyethyl)amino-7-nitrobenz-2-oxa-1,3-diazole (synthesis intermediate prepared in Example 44; hereinafter referred to as "HO-C2-NBD").
Five min after the administration, the monkeys were bled to death; and, immediately after that, each organ was extracted. According to the conventional method, the organs were homogenized and deprotenized. Thereafter, the samples were subjected to separation by reversed phase liquid chromatography. Glc-S-C8-CONH-C2-NBD and HO-C2-NBD were detected and quantitatively determined by fluorescence detector.

[6] = Renal selectivity (organ distribution) of thioglucoside-modified products (Test 6); assay type: in vivo; conditions: rats; for Conc. in kidney / Renal clearance: ^3H-labeled product, same manner as Test 1 (i.v. 1 nmol/kg, 5 min); for renal selectivity: comparison between AVP derivatives
Method: as §1

Molecule: O=C[C@H](O)[C@@H](O)[C@H](O)[C@H](O)CF [6-Fluoro-6-deoxyglucose]
Inhibition (%) (kidney membrane fraction [3]; sample 20 mM): 17.8%
Inhibition (%) (kidney membrane fraction [3]; sample 100 mM): 32.5%

Molecule: N=C(N)NCCC[C@H](NC(=O)[C@@H]1CCCN1C(=O)[C@@H]1CSSC[C@H](NC(=O)CCCCCCCCO[C@@H]2O[C@H](CO)[C@@H](O)[C@H](O)[C@@H]2O)C(=O)N[C@@H](Cc2ccc(O)cc2)C(=O)N[C@@H](Cc2ccccc2)C(=O)N[C@@H](CCC(N)=O)C(=O)N[C@@H](CC(N)=O)C(=O)N1)C(=O)NCC(N)=O [Man-O-C8-AVP]
renal selectivity [4]: high renal selectivity

Molecule: O=[N+]([O-])c1ccc(S[C@@H]2O[C@H](CO)[C@@H](O)[C@H](O)[C@H]2O)cc1 [Glc-S-pNP, p-Nitrophenyl 1-thio-β-D-glucopyranoside]
IC50 (kidney membrane fraction [1]): 0.23 µM

Molecule: CC(C)(C)CC(C)(C)S[C@@H]1O[C@H](CO)[C@@H](O)[C@H](O)[C@H]1O [Glc-S-C(CH3)2-CH2-C(CH3)3, t-Octyl 1-thio-β-D-glucopyranoside]
IC50 (kidney membrane fraction [1]): 1 µM

Molecule: O=CC[C@@H](O)[C@H](O)[C@H](O)CO [2-Deoxyglucose]
Inhibition (%) (kidney membrane fraction [3]; sample 20 mM): 29.2%
Inhibition (%) (kidney membrane fraction [3]; sample 100 mM): 58.3%

Molecule: O=C[C@H](F)[C@@H](O)[C@H](O)[C@H](O)CO [2-Fluoro-2-deoxyglucose]
Inhibition (%) (kidney membrane fraction [3]; sample 20 mM): 37.8%
Inhibition (%) (kidney membrane fraction [3]; sample 100 mM): 67.9%

Molecule: O=C(CCCCCCCCS[C@@H]1O[C@H](CO)[C@@H](O)[C@H](O)[C@H]1O)NCCNc1ccc([N+](=O)[O-])c2nonc12 [Glc-S-C8-CONH-C2-NBD]
concentration of administered compound: Adrenal [5]: 1.87 pmol/mol or g tissue
concentration of administered compound: Blood [5]: 10.72 pmol/mol or g tissue
concentration of administered compound: Heart [5]: 3.23 pmol/mol or g tissue
concentration of administered compound: Kidney [5]: 280.32 pmol/mol or g tissue
concentration of administered compound: Liver [5]: 13.85 pmol/mol or g tissue
concentration of administered compound: Lung [5]: 6.90 pmol/mol or g tissue
concentration of administered compound: Plasma [5]: 16.42 pmol/mol or g tissue
concentration of administered compound: Spleen [5]: 0.55 pmol/mol or g tissue

Molecule: CO[C@@H]1O[C@H](CO)[C@@H](O)[C@H](O)[C@H]1O [Glc-O-CH3, Methyl β-D-glucopyranoside]
IC50 (kidney membrane fraction [2]): > 2000 µM

Molecule: O=C[C@H](O)[C@@H](F)[C@H](O)[C@H](O)CO [3-Fluoro-3-deoxyglucose]
Inhibition (%) (kidney membrane fraction [3]; sample 20 mM): 9.7%
Inhibition (%) (kidney membrane fraction [3]; sample 100 mM): 18.7%

Molecule: O=C[C@H](O)[C@@H](O)[C@@H](O)[C@H](O)CO [Galactose]
Inhibition (%) (kidney membrane fraction [3]; sample 20 mM): 2.5%
Inhibition (%) (kidney membrane fraction [3]; sample 100 mM): 18.9%

Molecule: OC[C@H]1OC(O)[C@H](O)[C@@H](O)[C@@H]1O (stereo partly drawn) [Glc, glucopyranose]
Inhibition (%) (kidney membrane fraction [3]; sample 20 mM): 16.7%
Inhibition (%) (kidney membrane fraction [3]; sample 100 mM): 38.4%
IC50 (kidney membrane fraction [2]): > 2000 µM

Molecule: O=[N+]([O-])c1ccc(NCCO)c2nonc12 [HO-C2-NBD, 4-(2-hydroxyethyl)amino-7-nitrobenz-2-oxa-1,3-diazole, reference compound]
concentration of administered compound: Adrenal [5]: 2.05 pmol/mol or g tissue
concentration of administered compound: Blood [5]: 7.53 pmol/mol or g tissue
concentration of administered compound: Heart [5]: 10.92 pmol/mol or g tissue
concentration of administered compound: Kidney [5]: 2.33 pmol/mol or g tissue
concentration of administered compound: Lung [5]: 17.33 pmol/mol or g tissue
concentration of administered compound: Plasma [5]: 7.51 pmol/mol or g tissue
concentration of administered compound: Spleen [5]: 2.35 pmol/mol or g tissue

Molecule: OC[C@H]1NC[C@H](O)[C@@H](O)[C@@H]1O [1-Deoxynojirimycin]
Inhibition (%) (kidney membrane fraction [3]; sample 20 mM): 98.9%
Inhibition (%) (kidney membrane fraction [3]; sample 100 mM): 99.6%

Molecule: arginine vasopressin [AVP, reference compound]
Conc. in kidney [6]: 5.3±0.7 % of dose/g
Renal clearance [6]: 0.49 ± 0.04 mL/min/g
IC50 (kidney membrane fraction [2]): 150 µM

Molecule: N=C(N)NCCC[C@H](NC(=O)[C@@H]1CCCN1C(=O)[C@@H]1CSSC[C@H](NC(=O)CCCCCCCCCCCS[C@@H]2O[C@H](CO)[C@@H](O)[C@H](O)[C@H]2O)C(=O)N[C@@H](Cc2ccc(O)cc2)C(=O)N[C@@H](Cc2ccccc2)C(=O)N[C@@H](CCC(N)=O)C(=O)N[C@@H](CC(N)=O)C(=O)N1)C(=O)NCC(N)=O [Glc-S-C11-AVP]
Conc. in kidney [6]: 40.2±1.5 % of dose/g
Renal clearance [6]: 4.47 ± 0.33 mL/min/g
renal selectivity [6]: higher renal selectivity than Glc-S-C8-AVP

Molecule: O=C[C@H](O)[C@@H](O)[C@H](F)[C@H](O)CO [4-Fluoro-4-deoxyglucose]
Inhibition (%) (kidney membrane fraction [3]; sample 20 mM): 70.2%
Inhibition (%) (kidney membrane fraction [3]; sample 100 mM): 83.9%

Molecule: N=C(N)NCCC[C@H](NC(=O)[C@@H]1CCCN1C(=O)[C@@H]1CSSC[C@H](NC(=O)CCCCCCCCS[C@@H]2O[C@H](CO)[C@@H](O)[C@H](O)[C@H]2O)C(=O)N[C@@H](Cc2ccc(O)cc2)C(=O)N[C@@H](Cc2ccccc2)C(=O)N[C@@H](CCC(N)=O)C(=O)N[C@@H](CC(N)=O)C(=O)N1)C(=O)NCC(N)=O [Glc-S-C8-AVP]
Conc. in kidney [6]: 29.2±0.9 % of dose/g
Renal clearance [6]: 3.42 mL/min/g and 3.42 ± 0.05 mL/min/g
renal selectivity [6]: higher renal selectivity than Glc-O-C8-AVP

Other lines, results leading:

IC50 (kidney membrane fraction [1]): 1.5 µM
Molecule: CCCCC(CCCC)S[C@@H]1O[C@H](CO)[C@@H](O)[C@H](O)[C@H]1O [Glc-S-CH(C4H9)2, 5-(1-Thio-β-D-glucopyranosyl)nonan]

IC50 (kidney membrane fraction [2]): 0.065 µM
IC50 (kidney membrane fraction [1]): 0.078 µM
Molecule: CCCCCCCCS[C@@H]1O[C@H](CO)[C@@H](O)[C@H](O)[C@H]1O [Glc-S-C8, Octyl 1-thio-β-D-glucopyranoside]

IC50 (kidney membrane fraction [1]): 4.7 µM
Molecule: COC(=O)CCCCCCCCS[C@@H]1N[C@H](CO)[C@@H](O)[C@H](O)[C@H]1O [5N-Glc-S-C8-COOMe, 8-methoxycarbonyloctyl 5-amino-5-deoxy-1-thio-β-D-glucopyranoside hydrochloride]

IC50 (kidney membrane fraction [1]): 1.5 µM
Molecule: CCCCCCCCS[C@@H]1OC[C@@H](O)[C@H](O)[C@H]1O [Xyl-S-C8, Octyl 1-thio-β-D-xylopyranoside]

IC50 (kidney membrane fraction [1]): 14 µM
Molecule: COC(=O)CCCCCCCCS[C@@H]1S[C@H](CO)[C@@H](O)[C@H](O)[C@H]1O [5S-Glc-S-C8-COOMe, 8-methoxycarbonyloctyl 5-deoxy-1,5-dithio-β-D-glucopyranoside]

IC50 (kidney membrane fraction [2]): 120 µM
IC50 (kidney membrane fraction [1]): 37 µM
Molecule: CCCCCCCCS[C@@H]1O[C@H](CO)[C@H](O)[C@H](O)[C@H]1O [Gal-S-C8, Octyl 1-thio-β-D-galactopyranoside]

IC50 (kidney membrane fraction [1]): 0.59 µM
Molecule: COC(=O)CCCCCCCCS[C@@H]1O[C@H](CO)[C@@H](O)[C@H](O)[C@H]1O [Glc-S-C8-COOMe, 8-methoxycarbonyloctyll-thio-β-D-glucopyranoside]

IC50 (kidney membrane fraction [1]): 0.11 µM
Molecule: COC(=O)CCCCCCCN[C@@H]1O[C@H](CO)[C@@H](O)[C@H](O)[C@H]1O [Glc-NH-C7-COOMe, N-(7-methoxycarbonyl)heptyl-β-D-glucopyranosylamine]

IC50 (kidney membrane fraction [1]): 33 µM
Molecule: COC(=O)CCCCCCCCO[C@@H]1O[C@H](CO)[C@@H](O)[C@H](O)[C@H]1O [Glc-O-C8-COOMe, 8-methoxycarbonyloctylβ-D-glucopyranoside]

IC50 (kidney membrane fraction [2]): 5.9 µM
Molecule: CCCCCCO[C@@H]1O[C@H](CO)[C@@H](O)[C@H](O)[C@H]1O [Glc-O-C6, Hexyl β-D-glucopyranoside]

IC50 (kidney membrane fraction [1]): 55 µM
Molecule: CCCCCCCCS[C@@H]1O[C@H](CO)C[C@H](O)[C@H]1O [Example 4d-Glc-S-C8, n-octyl 4-deoxy-1-thio-β-D-glucopyranoside]

IC50 (kidney membrane fraction [2]): 2.9 µM
IC50 (kidney membrane fraction [1]): 4.6 µM
Molecule: CCCCCCCCO[C@@H]1O[C@H](CO)[C@@H](O)[C@H](O)[C@H]1O [Glc-O-C8, Octyl β-D-glucopyranoside]

IC50 (kidney membrane fraction [1]): 0.071 µM
Molecule: CCCCCCCCS[C@H]1C[C@@H](O)[C@H](O)[C@@H](CO)O1 [Example 2d-Glc-S-C8, Octyl 2-deoxy-1-thio-β-D-glucopyranoside]

IC50 (kidney membrane fraction [1]): 1.1 µM
Molecule: CCCCCCCCS[C@@H]1O[C@H](CO)[C@@H](O)[C@@H](O)[C@H]1O [All-S-C8, Octyl 1-thio-β-D-allopyranoside]

IC50 (kidney membrane fraction [1]): 0.2 µM
Molecule: CCCCCCCCS[C@@H]1O[C@H](CO)[C@@H](O)[C@H](O)[C@@H]1O [Man-S-C8, Octyl 1-thio-β-D-mannopyranoside]
